Source: paper PMC9782245, “Synthesis and Structural Optimization of 2,7,9-Trisubstituted purin-8-ones as FLT3-ITD Inhibitors” (International Journal of Molecular Sciences, 2022)
Values joined by “and” are separate entries in the source; they are usually repeats but may differ in a detail not shown here. Equal entries are not always repeated. Where two headings read alike, the source gives them in different places.

Legend:
MV4-11 cells = experiment: Resazurin-based viability assay, MV4-11; type: cell-based, Human; settings: for GI50: Homo sapiens, MV4-11, 72 h, resazurin, at least duplicate experiments
Source text: (§1) In parallel to kinase assays, we measured the effect of compounds on the viability of cancer cell lines MV4-11 and K562 using a resazurin-based assay. MV4-11 is an AML cell line dependent on a constitutively activated FLT3-ITD kinase with high sensitivity to FLT3 inhibition, K562 cells (chronic myelogenous leukemia) are independent on FLT3.
(§2) Human cell lines were obtained from the European Collection of Authenticated Cell Cultures (K562) and Cell lines service (MV4-11) and were cultivated according to the provider’s instructions. Briefly, cells were maintained in RPMI-1640 (MV4-11) or DMEM (K562) supplemented with 10% fetal bovine serum, penicillin (100 U/mL), and streptomycin (0.1 mg/mL) at 37 °C in 5% CO2. For the viability assays, cells were treated in triplicate with six different doses of each compound for 72 h. After treatments, the resazurin (Sigma Aldrich, St. Louis, MO, USA) solution was added for 4 h, and the fluorescence of resorufin corresponding to live cells was measured at 544/590 nm (excitation/emission) using a Fluoroskan Ascent microplate reader (Labsystems). The GI50 value, the drug concentration lethal to 50% of the cells, was calculated from the dose-response curves that resulted from the assays.

K562 cells = experiment: Resazurin-based viability assay, K562; type: cell-based; settings: Homo sapiens, 72 h, at least duplicate experiments
Source text: as §1, §2

CDK2/E = CDK2/E (Homo sapiens, UniProt P24941); experiment: Kinase inhibition assay CDK2/E; type: biochemical
Protocol: (§3) Newly prepared compounds 12–15 were assayed for inhibition of FLT3-ITD kinase as well as CDK4 and CDK2, known off-targets of structurally related compounds. We observed that CDK4 was sensitive to nearly all compounds with IC50 values in mid-nanomolar values.
(§4) CDK/cyclin complexes and FLT3 kinases were assayed as previously described. Protein kinase selectivity was evaluated at a single concentration (1 µM) by screening against 30 enzymes at Eurofins Discovery (France).

CDK4/D1 = CDK4/D1 (Homo sapiens, UniProt P11802); experiment: Kinase inhibition assay CDK4/D1; type: biochemical
Protocol: as §3, §4

FLT3-ITD = biological target: T1, FLT3-ITD (Homo sapiens, UniProt P36888, ITD); experiment: Kinase inhibition assay FLT3-ITD; type: biochemical
T1 sequence (P36888 27-993): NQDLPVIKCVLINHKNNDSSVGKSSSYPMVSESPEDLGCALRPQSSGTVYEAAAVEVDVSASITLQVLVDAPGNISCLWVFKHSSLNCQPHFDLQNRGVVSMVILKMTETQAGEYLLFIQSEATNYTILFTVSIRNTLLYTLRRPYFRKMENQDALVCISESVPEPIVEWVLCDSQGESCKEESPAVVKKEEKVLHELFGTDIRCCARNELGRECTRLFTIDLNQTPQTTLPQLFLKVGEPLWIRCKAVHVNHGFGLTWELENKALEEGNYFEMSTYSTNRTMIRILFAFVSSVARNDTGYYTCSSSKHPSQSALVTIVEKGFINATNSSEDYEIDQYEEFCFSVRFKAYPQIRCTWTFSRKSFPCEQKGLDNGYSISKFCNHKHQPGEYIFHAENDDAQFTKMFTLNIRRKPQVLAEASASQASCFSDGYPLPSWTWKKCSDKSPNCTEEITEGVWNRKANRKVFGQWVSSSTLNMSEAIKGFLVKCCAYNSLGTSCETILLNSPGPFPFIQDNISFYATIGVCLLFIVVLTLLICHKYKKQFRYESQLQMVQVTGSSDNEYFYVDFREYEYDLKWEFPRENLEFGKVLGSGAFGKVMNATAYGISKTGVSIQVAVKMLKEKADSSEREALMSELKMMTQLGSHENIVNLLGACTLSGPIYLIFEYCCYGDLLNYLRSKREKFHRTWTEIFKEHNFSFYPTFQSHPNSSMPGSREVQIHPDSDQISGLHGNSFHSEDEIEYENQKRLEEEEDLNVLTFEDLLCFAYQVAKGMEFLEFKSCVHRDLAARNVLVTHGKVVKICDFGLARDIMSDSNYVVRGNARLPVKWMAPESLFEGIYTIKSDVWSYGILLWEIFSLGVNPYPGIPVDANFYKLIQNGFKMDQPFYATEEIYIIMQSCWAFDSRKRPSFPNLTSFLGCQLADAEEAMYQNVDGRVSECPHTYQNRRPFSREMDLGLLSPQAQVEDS
Protocol: as §3, §4

[1] = at least duplicate experiments, read-out: IC50 CDK2/E
[2] = at least duplicate experiments, read-out: IC50 CDK4/D1
[3] = at least duplicate experiments, read-out: IC50 FLT3-ITD

Sequence of CDK4/D1 (P11802 whole entry): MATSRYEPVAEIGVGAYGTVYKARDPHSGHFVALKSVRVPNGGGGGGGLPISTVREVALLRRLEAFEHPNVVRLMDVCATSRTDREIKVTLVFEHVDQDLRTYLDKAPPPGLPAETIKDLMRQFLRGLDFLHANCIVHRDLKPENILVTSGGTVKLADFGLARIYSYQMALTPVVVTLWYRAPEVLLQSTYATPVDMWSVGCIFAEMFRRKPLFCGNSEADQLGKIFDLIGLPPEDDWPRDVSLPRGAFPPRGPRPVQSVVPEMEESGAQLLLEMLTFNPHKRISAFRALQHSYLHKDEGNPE
Sequence of CDK4/D1 (P24385 whole entry partner): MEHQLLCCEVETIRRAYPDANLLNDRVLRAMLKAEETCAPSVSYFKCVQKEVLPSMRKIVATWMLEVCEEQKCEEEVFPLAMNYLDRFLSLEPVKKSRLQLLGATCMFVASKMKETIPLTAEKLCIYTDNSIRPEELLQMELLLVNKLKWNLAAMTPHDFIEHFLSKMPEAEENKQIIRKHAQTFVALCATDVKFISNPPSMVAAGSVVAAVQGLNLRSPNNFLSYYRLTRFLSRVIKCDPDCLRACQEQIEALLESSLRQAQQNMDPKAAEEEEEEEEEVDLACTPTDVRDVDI

| SMILES | GI50 (MV4-11 cells) [µM] | GI50 (K562 cells) [µM] | IC50 (CDK2/E; [1]) | IC50 (CDK4/D1; [2]) | IC50 (FLT3-ITD; [3]) [µM] | melting point [°C] | IC50 (CDK4/D1; read-out: IC50 CDK4) [µM] | IC50 (FLT3-ITD; read-out: IC50 FLT3) [µM] | IC50 (CDK2/E; read-out: IC50 CDK2) [µM] | selectivity index (ratio for GI50's of K562 and MV4-11 cells) (MV4-11 cells; K562 / MV4-11) |
| --- | --- | --- | --- | --- | --- | --- | --- | --- | --- | --- |
| FC(F)(F)c1nc2cnc(Nc3ccc(N4CCNCC4)cc3)nc2n1C1CCCC1 [12a] | 0.22 | 1.11 | 1.63 µM | 0.051 µM | 0.224 | 232 to 234 |  |  |  |  |
| FC(F)(F)c1nc2cnc(Nc3ccc(N4CCNCC4)cc3)nc2n1C1CCCCC1 [12b] | 0.11 | 1.17 | 0.23 µM | 0.016 µM | 0.06 | 218 to 220 |  |  |  |  |
| FC(F)(F)c1nc2cnc(Nc3ccc(N4CCNCC4)cc3)nc2n1C1CCCCCC1 [12d] | 0.25 | 2.45 | 0.15 µM | 0.022 µM | 0.088 | 216 to 218 |  |  |  |  |
| O=c1[nH]c2cnc(Nc3ccc(N4CCNCC4)cc3)nc2n1C1CCCC1 [13a] | 0.68 | 1.63 | 24.5 µM | 2.88 µM | 2.37 | 200 to 202 |  |  |  |  |
| O=c1[nH]c2cnc(Nc3ccc(N4CCNCC4)cc3)nc2n1C1CCCCC1 [13b] | 0.69 | 1.78 | 3.36 µM | 0.782 µM | 1.59 |  |  |  |  |  |
| CC1CCC(n2c(=O)[nH]c3cnc(Nc4ccc(N5CCNCC5)cc4)nc32)CC1 (stereo not shown) [13c] | 0.7 | 1.9 | 2.56 µM | 0.451 µM | 1.05 |  |  |  |  |  |
| O=c1[nH]c2cnc(Nc3ccc(N4CCNCC4)cc3)nc2n1C1CCCCCC1 [13d] | 0.56 | 1.58 | 1 µM | 0.479 µM | 0.425 |  |  |  |  |  |
| Cn1c(=O)n(C2CC2)c2nc(Nc3ccc(N4CCNCC4)cc3)ncc21 [14b] | 0.71 | 45.3 | > 20 µM | > 1 µM and 8.02 µM | 0.642 | 156 to 158 |  |  |  |  |
| Cn1c(=O)n(C2CCC2)c2nc(Nc3ccc(N4CCNCC4)cc3)ncc21 [14c] | 0.11 | 1.04 | 3.9 µM | 0.524 µM | 0.056 |  | 0.4 to 0.52 | 0.05 to 0.06 |  |  |
| Cn1c(=O)n([C@H]2CC[C@H](O)CC2)c2nc(Nc3ccc(N4CCNCC4)cc3)ncc21 [14f] | 0.51 | 9.37 | > 1 µM and 2.87 µM | 0.25 µM | 0.132 | 272 to 274 |  |  |  |  |
| Cn1c(=O)n([C@H]2CC[C@H](C)CC2)c2nc(Nc3ccc(N4CCNCC4)cc3)ncc21 [14g] | 0.11 | 1.26 | 0.18 µM | 0.027 µM | 0.068 | 114 to 116 | ≤ 0.3 | ≤ 0.3 | ≤ 0.3 |  |
| Cn1c(=O)n(C2CCCCCC2)c2nc(Nc3ccc(N4CCNCC4)cc3)ncc21 [14h] | 0.1 | 1.48 | 0.06 µM | 0.022 µM | 0.034 | 256 to 258 | ≤ 0.3 | ≤ 0.3 | ≤ 0.3 |  |
| Cn1c(=O)n(C2CCCCCCC2)c2nc(Nc3ccc(N4CCNCC4)cc3)ncc21 [14i] | 0.09 | 2.46 | 0.09 µM | 0.025 µM | 0.012 |  | ≤ 0.3 | ≤ 0.3 | ≤ 0.3 | > 20 |
| Cn1c(=O)n(C2CCOCC2)c2nc(Nc3ccc(N4CCNCC4)cc3)ncc21 [14k] | 0.59 | 18.2 | > 1 µM and 9.25 µM | > 1 µM and 2.53 µM | 0.45 | 124 to 126 |  |  |  |  |
| Cn1c(=O)n(-c2ccccc2)c2nc(Nc3ccc(N4CCNCC4)cc3)ncc21 [14m] | 0.34 | 3.03 | 3.74 µM | 0.4 µM | 0.054 | 120 to 122 | 0.4 to 0.52 | 0.05 to 0.06 |  |  |
| Cc1ccc(-n2c(=O)n(C)c3cnc(Nc4ccc(N5CCNCC5)cc4)nc32)cc1 [14o] | 0.46 | 7.62 | > 1 µM and 2.4 µM | 0.169 µM | 0.16 | 126 to 128 |  |  |  |  |
| COc1ccccc1-n1c(=O)n(C)c2cnc(Nc3ccc(N4CCNCC4)cc3)nc21 [14p] | 0.31 | 0.37 | 1.59 µM | 2.72 µM | 0.306 | 185 to 187 |  |  |  |  |
| COc1ccc(-n2c(=O)n(C)c3cnc(Nc4ccc(N5CCNCC5)cc4)nc32)cc1 [14q] | 0.4 | 1.97 | > 1 µM and 6.18 µM | 0.488 µM | 0.262 | 270 to 272 |  |  |  |  |
| COc1ccc(Cn2c(=O)n(C)c3cnc(Nc4ccc(N5CCNCC5)cc4)nc32)c(OC)c1 [14r] | 0.9 | 11.9 | > 1 µM and 20 µM | > 20 µM | 0.456 | 102 to 104 |  |  |  |  |
| Cn1c(=O)n(-c2cccc3ccccc23)c2nc(Nc3ccc(N4CCNCC4)cc3)ncc21 [14s] | 0.33 | 2.53 | > 1 µM and 9.53 µM | > 1 µM and 6.9 µM | 0.85 |  |  |  |  |  |
| CC(C)n1c(=O)n(C2CCCCCC2)c2nc(Nc3ccc(N4CCNCC4)cc3)ncc21 [15d] | 0.1 | 1.18 | 2.32 µM | 1.1 µM | 0.027 |  |  |  |  |  |
